The assay addresses PhdB (phenylacetate decarboxylase), sewage culture version (uncultured Acidobacteriota bacterium, UniProt A0A2P1UAH0). The format is biochemical.

Sequence of PhdB (phenylacetate decarboxylase), sewage culture version (A0A2P1UAH0 1-839): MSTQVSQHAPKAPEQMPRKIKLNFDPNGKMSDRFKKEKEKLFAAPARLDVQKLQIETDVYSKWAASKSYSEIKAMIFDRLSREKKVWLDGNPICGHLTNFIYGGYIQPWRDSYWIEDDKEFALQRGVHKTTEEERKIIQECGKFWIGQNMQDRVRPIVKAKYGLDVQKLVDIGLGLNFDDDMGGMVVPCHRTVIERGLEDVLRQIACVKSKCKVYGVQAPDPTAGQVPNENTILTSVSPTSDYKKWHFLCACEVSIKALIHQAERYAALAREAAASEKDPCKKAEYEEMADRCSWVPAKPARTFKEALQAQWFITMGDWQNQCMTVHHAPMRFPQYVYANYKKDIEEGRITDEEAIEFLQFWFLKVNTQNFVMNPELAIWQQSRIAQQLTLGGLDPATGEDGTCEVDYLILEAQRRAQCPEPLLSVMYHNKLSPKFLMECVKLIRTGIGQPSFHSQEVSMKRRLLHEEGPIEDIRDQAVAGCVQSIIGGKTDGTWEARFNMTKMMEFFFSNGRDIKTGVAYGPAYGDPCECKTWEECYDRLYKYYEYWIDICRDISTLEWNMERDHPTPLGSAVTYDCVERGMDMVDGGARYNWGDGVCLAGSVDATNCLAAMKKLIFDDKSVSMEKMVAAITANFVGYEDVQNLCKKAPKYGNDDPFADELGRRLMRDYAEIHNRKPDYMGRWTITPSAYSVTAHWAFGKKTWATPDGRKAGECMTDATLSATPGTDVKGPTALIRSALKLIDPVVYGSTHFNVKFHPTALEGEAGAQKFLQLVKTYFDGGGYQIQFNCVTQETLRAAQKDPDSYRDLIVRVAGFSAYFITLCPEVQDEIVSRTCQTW

With `O=C(O)C(F)(F)c1ccccc1` [α,α‐difluorophenylacetate], the Ki (as a rule, the dissociation constant of the complex between target and ligand, obtained from inhibition or displacement) was 370 ± 30 µM.

Source of the values: article PMC7079210 (Chembiochem, 2019).
